Data published in patent US10369089B2, “Iron oxide nanoparticles and methods of use thereof” (THE TRUSTEES OF THE UNIVERSITY OF PENNSYLVANIA, priority 2015, dated 2019).

Assays:
S. mutans biofilms = assay: Biofilm disruption after twice daily topical treatment (confocal microscopy); type: cell-based, Streptococcus mutans UA159; conditions: CAT-NP 0.5 mg/ml, H2O2 1%, in vitro
Description: To determine the retention and the spatial distribution of CAT-NPs within an intact biofilm 3D architecture, multiphoton confocal microscopy and computational analysis were used (Xiao et al., PLoS Pathog. 2012; Klein et al., J Vis Exp, 2011; Koo et al., J Bacteriol, 2010). The exopolysaccharides (EPS) (in red) were labeled using […] Alexa Fluor 647-labeled dextran conjugate (10 kDa; 647/668 nm; Molecular Probes Inc., Invitrogen Corp., Carlsbad, Calif., USA) and the bacterial cells (in green) were stained with 2.5 μM SYTO 9 (485/498 nm; Molecular Probes Inc.). The CAT-NPs (in white) were detected via their inherent non-linear optical property using multiphoton confocal microscopy (Xiao et al., PLoS Pathog, 2012; Klein et al., J Vis Exp, 2011; Liao et al., Adv Funct Mater, 2013; Koo et al., J Bacteriol, 2010; Liao et al., Adv Funct Mater, 2013). Imaging was performed using a Leica SP5 multiphoton confocal microscope with a 20× LPlan N (1.05 numerical aperture) water immersion objective lens. […] The confocal images were analyzed using software for simultaneous visualization and quantification of EPS, bacterial cells and CAT-NPs within the intact biofilms. […] COMSTAT and ImageJ were used for quantitative analysis as previously described (Xiao et al., PLoS Pathog. 2012; Klein et al., J Vis Exp. 2011; Koo et al., J Bacteriol, 2010). […]

[1] = test system: gingival and palatal tissues; set-up: species or system Sprague-Dawley rats; conditions: rat, in vivo
Description: Each group was provided with the National Institutes of Health cariogenic diet 2000 and 5% sucrose water ad libitum. The experiment proceeded for 3 weeks. All animals were weighed weekly and their physical appearance was noted daily. All animals gained weight equally among the experimental groups and remained in good health during the experimental period. At the end of the experimental period, the animals were sacrificed and the jaws were surgically removed and dissected. All of the jaws were defleshed and the teeth were prepared for caries scoring according to Larson's modification of Keyes' system disease (see Larson, Animal models in cariology: symposium and workshop proceedings special supplement of microbiology abstracts, 1981; Bowen, Odontology, 2013; […] et al., Infect Immun, 2014; Horev, ACS Nano, 2015). Determination of the caries score of the codified jaws was performed by one calibrated examiner. Furthermore, both the gingival and palatal tissues were collected and processed for hematoxylin and eosin (HE) staining for histopathological analysis.

[2] = Degradation of purified glucans produced by GtfB and GtfD; type: biochemical; conditions: 0.1 M NaOAc pH 4.5, 37° C., 30 min
Method: Given that free-radicals produced from H2O2 catalysis can also degrade polysaccharides in vitro (Gao et al., Nanoscale, 2014), the amount of EPS in the CAT-NP-treated biofilms was analyzed following exposure to H2O2. For assessment of EPS degradation, 100 μg of (insoluble or soluble) glucans produced by purified glucosyltransferases (GtfB or GtfD) (Koo et al., Antimicrob Agents Chemother, 2002) were mixed with each of the treatment solutions (in 0.1 M NaOAc, pH 4.5) and incubated at 37° C. for 30 min. The glucans were manufactured as follows. Each of the Gtf enzymes (10 U) were mixed with a sucrose substrate buffer (100 mM sucrose, 20 μM dextran 9,000, 50 mM KCl, 1.0 mM KPO4, 1.0 mM CaCl2 and 0.1 mM MgCl2, pH 6.5) and incubated for 4 h at 37° C. After incubation, the glucans produced were collected by centrifugation, washed and the total amounts were determined by standard phenol-sulfuric acid colorimetric assay (Koo et al., J Antimicrob Chemother, 2003; Koo et al., Antimicrob Agents Chemother, 2002). One hundred micrograms of glucan was mixed with each of the treatment solutions (total reaction volume of 300 μl in 0.1 M NaOAc, pH 4.5) and incubated at 37° C. for 30 min with rocking. After incubation, the amount of reducing sugars was determined by Somogyi-Nelson colorimetric assay.

dental caries = assay: Rodent model of dental caries; type: in vivo, Sprague-Dawley rats; conditions: rats, topical twice-daily for 3 weeks; vs. vehicle control
Method: In brief, animal experiments were performed on a well-established rodent model of dental caries (Bowen, Odontology, 2013; […] et al., Infect Immun, 2014; Horev, ACS Nano, 2015; Koo et al., J Dent Res, 2005). Briefly, Sprague-Dawley rats, 15 days old, were purchased with their dams from Harlan Laboratories (Madison, Wis., USA) and screened for infection with S. mutans. Any animals infected with S. mutans prior to inoculation were removed from the study. The animals were then infected orally using an actively growing (mid-logarithmic) culture of S. mutans UA159 and their infection was checked via oral swabbing. Infected animals were randomly placed into four treatment groups (12 animals/group) and their teeth were treated topically using a custom-made applicator twice daily. The treatment groups included: […] Agents were applied topically (orally-delivered; 100 μL per rat) twice-daily for 3 weeks, with brief exposures (30 s) to simulate clinical use. Each group was provided with the National Institutes of Health cariogenic diet 2000 and 5% sucrose water ad libitum. The experiment proceeded for 3 weeks. All animals were weighed weekly and their physical appearance was noted daily. All animals gained weight equally among the experimental groups and remained in good health during the experimental period. […]

[3] = test system: insoluble and soluble EPS; assay: EPS degradation within biofilms; type: cell-based, Streptococcus mutans UA159; conditions: 30 min after H2O2 exposure; vs control
Description: Biofilms were formed on saliva-coated hydroxyapatite (sHA) surfaces (tooth enamel-like material) using Streptococcus mutans, a well-established biofilm-forming, acidogenic and matrix-producing oral pathogen (FIG. 9). The hydroxyapatite discs (surface area, 2.7±0.2 cm^2) were purchased from Clarkson Chromatography and the bacteria strain, Streptococcus mutans UA159, was purchased from ATCC. The biofilm method is based on the saliva-coated hydroxyapatite (sHA) disc model (see Xiao et al., PLoS Pathog. 2012; Klein et al., J Vis Exp. 2011; Falsetta et al., Infect Immun., 2014; Koo et al., J Bacteriol, 2010; Koo et al., J Antimicrob Chemother, 2003). […] The biofilms were collected and analyzed at specific time points (19 h, 29 h and 43 h) by means of confocal fluorescence imaging, microbiological and biochemical analyses (Xiao et al., PLoS Pathog. 2012; Klein et al., J Vis Exp. 2011; Falsetta et al., Infect Immun., 2014; Koo et al., J Bacteriol, 2010; Koo et al., J Antimicrob Chemother, 2003).
To investigate whether CAT-NP-mediated H2O2 catalysis and generation of free-radicals in situ can kill embedded bacteria and degrade the EPS-matrix within biofilms, the following experiments were performed. […] Biofilms treated with CAT-NPs (0.5 mg/ml) were immediately exposed to H2O2 (0.1 to 1%, v/v) and the number of viable cells and EPS content were determined (FIG. 13A and FIG. 14). […]

| Compound | biofilm disruption (accumulation of bacterial cells and EPS-matrix) (S. mutans biofilms) | cytotoxic effects in gingival and palatal tissues (histopathology) [1] | degradation of glucans from GtfB and GtfD (glucose released) [2] | initiation and severity of carious lesions (caries scoring) (dental caries) | amounts of insoluble and soluble EPS within biofilms [3] |
| --- | --- | --- | --- | --- | --- |
| OO [H2O2, hydrogen peroxide] | limited anti-biofilm effects | no cytotoxic effects | failed to cleave either glucan | without significant effect | inability to reduce EPS within biofilms |
| iron oxide nanoparticles [IO-NPs] |  | no cytotoxic effects |  |  |  |
